Measured values from patent publication US10882859B2, “Kinase inhibitors” (Topivert Pharma Limited, priority 2015, dated 2021).
Converted amounts (≈) assume the structure as drawn. Read-outs that look alike come from different tables or passages of the source.

Legend:
[1] = biological target: JAK1 (Homo sapiens (Human), UniProt P23458); assay: KINOMEscan enzyme binding assay (DiscoveRx), JAK1; conditions: read-out: Dissociation Constant JAK1
Method: (§1) These assays may be conducted by DiscoveRx (formerly Ambit; San Diego, Calif.). The percentage inhibition produced by incubation with a test compound may be calculated relative to the non-inhibited control.

[2] = biological target: JAK2 (Homo sapiens (Human), UniProt O60674); assay: KINOMEscan enzyme binding assay (DiscoveRx), JAK2; conditions: read-out: Dissociation Constant JAK2
Method: as §1

[3] = biological target: JAK3 (Homo sapiens (Human), UniProt P52333); assay: KINOMEscan enzyme binding assay (DiscoveRx), JAK3; conditions: read-out: Dissociation Constant JAK3
Method: as §1

[4] = biological target: TYK2 (Homo sapiens (Human), UniProt P29597); assay: KINOMEscan enzyme binding assay (DiscoveRx), TYK2; conditions: read-out: Dissociation Constant TYK2
Method: as §1

[5] = test system: CD3/IL2 stimulated PBMC cells; assay: IFNγ release from CD3/IL2 stimulated PBMC cells; assay type: cell-based; conditions: Homo sapiens, CD3/IL2 stimulation, 48 h, ELISA
Method: PBMCs from healthy subjects are separated from whole blood using a density gradient (Lymphoprep, Axis-Shield Healthcare). Cells are added to a 96 well plate, and compound at the desired concentration added 2 hours prior to stimulation with a mixture of monoclonal antibody to CD3 (1 μg/ml, eBioscience) and human recombinant IL2 (10 ng/ml, Peprotech). After 48 hours incubation under normal tissue culture conditions, supernatants are collected and IFNγ release determined by Sandwich ELISA (Duo-set, R&D System). The IC50 is determined from the dose response curve.

[6] = test system: Jurkat cells; assay: Cell cytotoxicity assay (propidium iodide, flow cytometry); assay type: cell-based, human; conditions: 24 h
Method: 1×10^5 Jurkat cells (immortalised human T lymphocytes) are added to the appropriate number of wells of a 96 well plate in 100 μL of media (RPMI supplemented with 10% foetal bovine serum). 1 μL of DMSO control (final concentration 1.0% v/v) or test compound (final concentration 20, 5 or 1 μg/mL) is added to the wells and incubated at 37° C., 5% CO2. After 24 hours, the plate is centrifuged at 1200 rpm for 3 minutes and the supernatant discarded. Cells are then resuspended in 150 μL (final concentration 7.5 μg/mL) of propidium iodide (PI) in PBS and incubated at 37° C., 5% CO2 for 15 minutes. After 15 minutes, cells are analysed by flow cytometry (BD accuri) using the FL3 window. The % viability is calculated as the % of cells that are PI negative in the test wells normalised to the DMSO control.

[7] = Solubility in fasted-state simulated colonic fluid (FaSSCoF); assay type: physicochemical; conditions: 25 °C, pH 6.5, fassgf or other biorelevant, thermodynamic from solid, pH 6.5, 25° C.
Method: The solubilities of compounds of the invention in FaSSCoF at pH 6.5 are determined using a modification of a previously-reported procedure (Vertzoni, M., et al. Pharm. Res. 2010, 27, 2187-2196). In place of the bile salt extract employed in the original procedure (which extract is no longer available), the modified procedure uses a mixture of sodium taurochlorate (0.15 g), glycocholic acid (0.15 g), ursodeoxycholic acid (0.05 g), cholic acid (0.05 g), and glycodeoxycholic acid (0.05 g). These five bile acids are ground together with a mortar and pestle to produce a fine white powder that is incorporated into the FaSSCoF, as outlined below.
FaSSCoF medium: Tris(hydroxymethyl)aminomethane (Tris; 0.275 g) and maleic acid (0.44 g) are dissolved in water (35 mL) to give a solution whose pH is adjusted to 6.5 by treatment with 0.5M NaOH (ca. 12 mL). The solution is then made up to 50 mL with water. A portion of this Tris/maleate buffer solution (ca. 25 mL) is added to a 0.5 L round-bottomed flask, before being treated with 0.00565 g of the bile acid mixture described above. Solutions of phosphatidylcholine (0.0111 g) in DCM (0.15 mL) and palmitic acid (0.0013 g) in DCM (0.15 mL) are added, then the organic solvent is evaporated off under reduced pressure at 40° C. until a clear solution, with no perceptible DCM odour, is achieved. The volume of the evaporated solution is adjusted to 50 mL by addition of the remainder of Tris/maleate buffer, then BSA (0.115 g) is added, before being dissolved by gentle agitation.
Solubility Determination: Test compounds are suspended in the pH 6.5 FaSSCoF medium to give a maximum final concentration of 2-10 mg/mL. The suspensions are equilibrated at 25° C. for 24 h, before being filtered through a glass fibre C filter. The filtrates are then diluted as appropriate for injection and quantification by HPLC with reference to a standard. Different volumes of the standard, diluted and undiluted sample solutions are injected and the solubilities are calculated using the peak areas determined by integration of the peak found at the same retention time as the principal peak in the standard injection.

[8] = Systemic pharmacokinetics and total colon tissue distribution after single oral administration; assay type: in vivo, male C57BL/6 mice; conditions: mice, oral 10 mg/kg; for concentration at 0.5 h / concentration at 1 h / concentration at 2 h / concentration at 4 h / concentration at 6 h / concentration at 8 h / concentration at 12 h / concentration at 24 h: male, C57BL/6, mouse
Method: Studies were conducted by Sai Life Sciences (Hinjewadi, Pune, India) to investigate the systemic pharmacokinetics and total colon tissue distribution of compounds of the invention following a single oral administration in male C57BL/6 mice.
A group of twenty four male mice were administered with a solution of test compound formulated at a dose of 10 mg/10 mL/kg in aqueous hydroxypropyl-β-cyclodextrin (20% w/v in water). Blood samples ([…]) were collected from retro-orbital plexus of each mouse under light isoflurane anaesthesia such that the samples were obtained at 0.5, 1, 2, 4, 6, 8, 12 and 24 hr. The blood samples were collected from a set of three mice at each time point in a labeled micro centrifuge tube containing K2EDTA as anticoagulant. Plasma samples were separated by centrifugation at 4000 rpm for 10 min and stored below −70° C. until bioanalysis. After collection of blood sample, animals were humanely euthanized by carbon dioxide asphyxiation to collect total colon tissues. The colons were flushed with cold PBS (pH7.4) to remove contents. The total colon tissues were homogenized with cold PBS (pH7.4) of twice the weight of colon tissue and stored below −70° C. Total volume was three times the total colon tissue weights. All samples were processed for analysis by protein precipitation using acetonitrile and analyzed with a fit-for-purpose LC-MS/MS method. Pharmacokinetic parameters were calculated using the non-compartmental analysis tool of Phoenix WinNonlin® (Version 6.3).

[9] = total colon tissue, total colon, read-out: Mean total colon level
[10] = plasma, read-out: Mean plasma concentration

Chain of JAK3 (P52333 whole entry): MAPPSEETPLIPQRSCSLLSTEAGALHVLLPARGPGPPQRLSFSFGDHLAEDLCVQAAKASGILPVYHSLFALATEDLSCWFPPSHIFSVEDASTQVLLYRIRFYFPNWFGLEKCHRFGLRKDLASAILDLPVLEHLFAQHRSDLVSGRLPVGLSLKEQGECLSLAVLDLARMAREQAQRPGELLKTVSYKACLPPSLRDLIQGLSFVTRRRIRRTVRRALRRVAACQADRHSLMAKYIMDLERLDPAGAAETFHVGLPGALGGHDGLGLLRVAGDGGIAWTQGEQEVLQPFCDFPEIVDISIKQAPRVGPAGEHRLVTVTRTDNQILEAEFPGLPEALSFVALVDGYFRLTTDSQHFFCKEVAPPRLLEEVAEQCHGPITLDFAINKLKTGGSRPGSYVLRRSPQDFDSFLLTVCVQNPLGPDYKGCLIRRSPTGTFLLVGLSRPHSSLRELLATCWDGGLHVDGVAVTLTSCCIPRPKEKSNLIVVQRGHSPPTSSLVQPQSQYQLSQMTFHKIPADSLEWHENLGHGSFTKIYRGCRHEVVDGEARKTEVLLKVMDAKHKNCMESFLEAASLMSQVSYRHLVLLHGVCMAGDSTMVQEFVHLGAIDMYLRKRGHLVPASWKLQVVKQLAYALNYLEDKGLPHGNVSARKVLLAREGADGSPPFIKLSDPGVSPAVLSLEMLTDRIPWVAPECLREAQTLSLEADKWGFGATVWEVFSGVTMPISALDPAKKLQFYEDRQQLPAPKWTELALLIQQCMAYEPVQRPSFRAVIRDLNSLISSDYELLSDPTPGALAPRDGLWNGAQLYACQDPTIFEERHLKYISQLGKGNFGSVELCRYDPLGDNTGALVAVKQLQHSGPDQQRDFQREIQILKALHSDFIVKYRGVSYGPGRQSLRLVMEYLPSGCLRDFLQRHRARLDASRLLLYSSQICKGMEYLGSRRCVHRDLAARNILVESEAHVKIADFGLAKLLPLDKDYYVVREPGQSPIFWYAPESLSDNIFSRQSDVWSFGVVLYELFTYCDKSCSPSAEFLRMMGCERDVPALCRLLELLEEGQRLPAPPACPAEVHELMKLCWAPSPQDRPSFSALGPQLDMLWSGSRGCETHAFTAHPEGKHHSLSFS
Chain of TYK2 (P29597 whole entry): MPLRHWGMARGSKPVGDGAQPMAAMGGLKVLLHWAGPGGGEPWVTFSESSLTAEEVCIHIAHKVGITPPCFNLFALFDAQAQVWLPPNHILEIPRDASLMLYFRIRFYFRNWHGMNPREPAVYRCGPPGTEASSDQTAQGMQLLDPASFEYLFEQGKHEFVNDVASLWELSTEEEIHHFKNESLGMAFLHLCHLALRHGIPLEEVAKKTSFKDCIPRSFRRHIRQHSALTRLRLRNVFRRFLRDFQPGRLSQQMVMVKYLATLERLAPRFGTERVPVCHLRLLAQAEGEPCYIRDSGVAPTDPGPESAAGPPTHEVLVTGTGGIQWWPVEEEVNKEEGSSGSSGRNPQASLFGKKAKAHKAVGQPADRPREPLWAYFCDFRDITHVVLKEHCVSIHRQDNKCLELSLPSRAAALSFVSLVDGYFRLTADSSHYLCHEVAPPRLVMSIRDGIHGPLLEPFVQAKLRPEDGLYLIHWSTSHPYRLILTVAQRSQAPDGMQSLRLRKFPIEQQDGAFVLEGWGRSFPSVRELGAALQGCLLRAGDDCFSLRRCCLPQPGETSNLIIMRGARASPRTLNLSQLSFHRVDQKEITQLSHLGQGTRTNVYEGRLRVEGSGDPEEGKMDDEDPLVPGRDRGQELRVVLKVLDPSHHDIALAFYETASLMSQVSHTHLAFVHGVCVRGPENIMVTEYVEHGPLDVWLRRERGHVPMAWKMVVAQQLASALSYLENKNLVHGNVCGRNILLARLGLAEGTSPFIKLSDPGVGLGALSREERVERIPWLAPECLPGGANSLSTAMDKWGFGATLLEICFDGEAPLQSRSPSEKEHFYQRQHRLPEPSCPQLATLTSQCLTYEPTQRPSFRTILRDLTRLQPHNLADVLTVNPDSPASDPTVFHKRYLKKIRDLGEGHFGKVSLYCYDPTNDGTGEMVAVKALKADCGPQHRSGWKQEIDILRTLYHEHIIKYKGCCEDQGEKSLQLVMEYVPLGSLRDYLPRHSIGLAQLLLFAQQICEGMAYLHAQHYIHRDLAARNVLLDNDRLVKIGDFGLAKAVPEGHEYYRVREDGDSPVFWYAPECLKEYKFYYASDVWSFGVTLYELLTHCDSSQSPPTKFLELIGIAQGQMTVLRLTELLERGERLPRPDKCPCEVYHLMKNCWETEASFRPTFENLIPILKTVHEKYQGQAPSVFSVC
Chain of JAK1 (P23458 whole entry): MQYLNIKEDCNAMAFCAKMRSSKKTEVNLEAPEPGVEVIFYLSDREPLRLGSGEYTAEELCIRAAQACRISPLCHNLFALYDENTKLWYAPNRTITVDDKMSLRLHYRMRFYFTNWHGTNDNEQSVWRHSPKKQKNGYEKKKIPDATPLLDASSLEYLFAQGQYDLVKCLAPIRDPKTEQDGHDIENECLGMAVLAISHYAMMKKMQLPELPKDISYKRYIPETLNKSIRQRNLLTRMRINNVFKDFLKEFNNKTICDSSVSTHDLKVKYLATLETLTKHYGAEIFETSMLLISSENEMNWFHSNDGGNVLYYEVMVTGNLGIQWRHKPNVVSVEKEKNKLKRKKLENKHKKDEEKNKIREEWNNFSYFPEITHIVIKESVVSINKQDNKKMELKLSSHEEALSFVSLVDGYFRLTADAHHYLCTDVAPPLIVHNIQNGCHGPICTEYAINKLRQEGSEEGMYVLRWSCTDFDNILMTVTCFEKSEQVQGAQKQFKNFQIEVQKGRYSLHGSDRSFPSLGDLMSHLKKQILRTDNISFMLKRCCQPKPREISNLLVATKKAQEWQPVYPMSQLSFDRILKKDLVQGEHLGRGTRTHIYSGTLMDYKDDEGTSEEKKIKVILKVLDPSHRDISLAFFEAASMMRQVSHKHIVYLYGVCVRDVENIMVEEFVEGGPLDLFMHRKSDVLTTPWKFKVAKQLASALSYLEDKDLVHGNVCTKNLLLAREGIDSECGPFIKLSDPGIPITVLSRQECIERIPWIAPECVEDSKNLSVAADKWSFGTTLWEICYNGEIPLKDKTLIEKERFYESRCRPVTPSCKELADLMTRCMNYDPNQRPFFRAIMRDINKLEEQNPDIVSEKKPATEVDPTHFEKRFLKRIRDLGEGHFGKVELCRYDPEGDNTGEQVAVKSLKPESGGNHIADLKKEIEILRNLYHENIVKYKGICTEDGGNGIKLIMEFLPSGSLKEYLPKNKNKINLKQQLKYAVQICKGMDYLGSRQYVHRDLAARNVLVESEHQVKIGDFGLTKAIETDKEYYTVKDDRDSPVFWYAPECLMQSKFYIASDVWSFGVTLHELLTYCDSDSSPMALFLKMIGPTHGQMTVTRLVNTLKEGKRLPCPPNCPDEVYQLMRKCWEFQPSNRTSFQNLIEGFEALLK
Chain of JAK2 (O60674 whole entry): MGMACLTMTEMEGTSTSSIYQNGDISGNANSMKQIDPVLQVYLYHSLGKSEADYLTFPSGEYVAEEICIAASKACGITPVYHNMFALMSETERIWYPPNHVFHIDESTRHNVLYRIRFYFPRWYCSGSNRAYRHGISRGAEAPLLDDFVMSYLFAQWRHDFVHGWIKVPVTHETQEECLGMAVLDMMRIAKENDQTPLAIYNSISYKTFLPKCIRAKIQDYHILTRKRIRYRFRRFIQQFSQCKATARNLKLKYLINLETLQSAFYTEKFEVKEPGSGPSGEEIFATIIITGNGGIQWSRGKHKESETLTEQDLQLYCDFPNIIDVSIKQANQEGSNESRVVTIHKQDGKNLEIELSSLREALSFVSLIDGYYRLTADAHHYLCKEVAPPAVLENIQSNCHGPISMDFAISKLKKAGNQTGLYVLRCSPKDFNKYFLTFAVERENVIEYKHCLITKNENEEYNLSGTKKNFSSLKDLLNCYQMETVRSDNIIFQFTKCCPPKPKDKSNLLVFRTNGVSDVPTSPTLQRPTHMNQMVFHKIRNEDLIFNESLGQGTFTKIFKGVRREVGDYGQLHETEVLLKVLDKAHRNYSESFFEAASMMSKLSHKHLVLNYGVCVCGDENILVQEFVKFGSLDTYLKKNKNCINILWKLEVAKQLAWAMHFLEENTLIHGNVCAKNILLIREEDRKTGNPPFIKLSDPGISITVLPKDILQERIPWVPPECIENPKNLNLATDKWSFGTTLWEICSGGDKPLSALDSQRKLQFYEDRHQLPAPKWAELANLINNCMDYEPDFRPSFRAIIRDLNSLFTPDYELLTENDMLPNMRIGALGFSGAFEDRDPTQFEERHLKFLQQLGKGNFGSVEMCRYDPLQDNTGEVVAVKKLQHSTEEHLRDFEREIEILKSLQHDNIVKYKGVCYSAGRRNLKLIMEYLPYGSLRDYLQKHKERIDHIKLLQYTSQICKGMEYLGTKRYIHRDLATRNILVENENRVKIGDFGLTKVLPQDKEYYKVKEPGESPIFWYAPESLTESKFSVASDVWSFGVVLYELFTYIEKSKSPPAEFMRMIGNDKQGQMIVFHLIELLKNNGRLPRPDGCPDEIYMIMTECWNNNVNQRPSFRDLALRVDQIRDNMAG

## CCc1cc(O)c(F)cc1-c1ccc2c(-c3nc4c([nH]3)CCN(C(=O)N3CCOCC3)C4)n[nH]c2c1 [Example 1, (2-(6-(2-Ethyl-5-fluoro-4-hydroxyphenyl)-1H-indazol-3-yl)-1,4,6,7-tetrahydro-5H-imidazo[4,5-c]pyridin-5-yl)(morpholino)methanone]
[1]
  Kd: 0.62 nM
[2]
  Kd: 0.052 nM
[3]
  Kd: 0.098 nM
[4]
  Kd: 0.11 nM
[5]
  IC50: 3.6 nM
[6]
  % viability at 1 μg/mL: 40%
[7]; Run 1, read-out: pH 6.5 FaSSCoF Solubility, Run 1
  solubility thermodynamic at 24 h: 40 µg/mL (≈ 81.5 µM)
[7]; Run 2, read-out: pH 6.5 FaSSCoF Solubility, Run 2
  solubility thermodynamic at 24 h: 20 µg/mL (≈ 40.8 µM)
[8]; [9]
  concentration at 0.5 h: 327 ng/g
  concentration at 1 h: 984 ng/g
  concentration at 2 h: 19700 ng/g
  concentration at 4 h: 4690 ng/g
  concentration at 6 h: 8440 ng/g
  concentration at 8 h: 11900 ng/g
  concentration at 12 h: 4790 ng/g
  concentration at 24 h: 350 ng/g
[8]; [10]
  concentration at 0.5 h: 6.1 ng/mL
  concentration at 1 h: 1.8 ng/mL
  concentration at 2 h: 1.9 ng/mL
  concentration at 4 h: 0 ng/mL
  concentration at 6 h: 0 ng/mL
  concentration at 8 h: 0 ng/mL
  concentration at 12 h: 0 ng/mL
  concentration at 24 h: 0 ng/mL
[8]; plasma
  Systemic plasma exposure: very low
[8]; total colon
  Colonic exposure AUC0-24 h: 132,979 h·ng/g
